Values of other authors in patent US8343565B2, “Method for producing grape extract with high ORAC value and grape extract so produced” (Ethical Naturals, Inc., priority 2008, dated 2013).

Settings: exemplary ORAC scores listed in the background

Molecule: O=C1O[C@H]([C@@H](O)CO)C(O)=C1O [vitamin C]
- ORAC scores for common vegetables and fruits: 5,000 μmol TE/g

Molecule: vitamin E
- ORAC scores for common vegetables and fruits: 1,200 μmol TE/g
